# Several values for one entry are separate records, joined by “and”; a condition that tells them apart may be missing. Equal entries are not always repeated.
# Tested on: 519858-162-T-J1-PDC complex spheroid viability
# Test: Anticancer human tumor 519858-162-T-J1-PDC patient-derived colon adenocarcinoma cell line growth inhibition [GQUAD]
# Settings: for viability, T/C: stronger effect = lower value
# Excerpt: DNA G-quadruplex Stabilizer Agents in Combinations in Complex Spheroids
# A high-throughput screen of multi-cell type tumor spheroids was designed to identify active combinations of DNA G-quadruplex stabilizer agents and targeted small molecules. Complex spheroids include a stromal component modeled by human endothelial cells (HUVEC) and fibroblasts modeled by human mesenchymal stem cells (MSCs). The concentration ranges selected for each drug and investigational agent were based upon clinically achievable concentrations if the clinical Cmax of the agent was known.
# Compounds. The drugs and investigational agents: pidnarulex (CX-5461; NSC782164), APTO-253 (NSC789042), BRACO-19 (NSC847499), peposertib (NSC802822), ceralasertib (NSC780249), elimusertib (NSC800525), camonsertib (NSC841442), AZD-1390 (NSC803789), olaparib (NSC753686), talazoparib (NSC767125), ART-558 (NSC835418), sotorasib (NSC818433), MRTX-1133 (NSC836407), SN-38 (NSC673596), topotecan (NSC609699), etoposide (NSC141540), doxorubicin (NSC123127), gemcitabine (NSC613327), 5-fluorouracil (NSC19893), paclitaxel (NSC125973), vemurafenib (NSC761431), panobinostat (NSC761190), R-306465 (JNJ-16241199; NSC773264), adavosertib (NSC754352), TP-3654 (NSC805149), carboplatin (NSC241240), KSQ-4279 (NSC840948), and staurosporine (NSC755774) were obtained from the National Cancer Institute (NCI) Developmental Therapeutics Program Chemical Repository (34). The FDA-approved anticancer drug set is available from the NCI Developmental Therapeutics Program. […] The stock solutions were prepared in dimethyl sulfoxide (DMSO, Sigma-Aldrich, St. Louis, MO, cat. D2650) at 800-fold the tested concentration and stored at -70 degrees C prior to their use. All drugs and investigational agents were tested over a range starting from a high concentration at or near the clinical Cmax and decreasing in half-log increments. If the clinical Cmax for an agent had not been determined, the highest concentration tested was 10 microM.
# 2.3 Cell Culture. All cells were maintained in an incubator at 37 degrees C and 5% CO2 with 95% humidity. The PDC lines were cultured according to standard operating procedures established by the NCI PDMR. All PDCs were thawed and cultured in Matrigel-coated flasks prepared with a working solution of 1X Ham's F-12 nutrient mix, without supplementation (Invitrogen, cat. 11765054), 100 U/mL penicillin-streptomycin (Invitrogen, cat. 15140122), and 2.5% Matrigel (Corning Inc., cat. 354248) for the first three passages. The 857933-349-R-J2-PDC line was cultured in 6C/Colon 1B media, which includes advanced DMEM/F-12 (Thermo Fisher Scientific, cat. 12634028), 10 mM HEPES (Thermo Fisher Scientific, cat. 15630080), 1X GlutaMAX supplement (Thermo Fisher Scientific, cat. 35050061), 0.1 mg/mL primocin (InvivoGen, cat. ant-pm-2), 10% defined fetal bovine serum, heat inactivated (HyClone Laboratories Inc., cat. SH30070.03HI), 50% L-WRN conditioned media (ATCC, cat. CRL-3276), 1.25 mM N-Acetyl-L-cysteine (Sigma-Aldrich, cat. A9165), 10 mM nicotinamide (Sigma-Aldrich, cat. N0636), 1X B-27 supplement (Thermo Fisher Scientific, cat. 17504044), 1X N-2 supplement (Thermo Fisher Scientific, cat. 17502048), 10 microM Y-27632 dihydrochloride (Tocris Bioscience, cat. 1254), and 50 ng/mL human EGF recombinant protein (Thermo Fisher Scientific, cat. PHG0311). The 485176-168-R4-J1-PDC line was cultured in Panc media, which includes all 6C/Colon 1B media components plus 100 ng/mL human FGF-10 (Thermo Fisher Scientific, cat. 100-26), 500 nM SB-431542 (Selleckchem, cat. S1067), and gastrin (Tocris, cat. 3006).
# […]
# [1] = compound alone, run of 02/26/2024
# 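Further: spheroids exposed to compounds for 7 days.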
# 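Wherever viability, T/C is given: 100% = DMSO vehicle control viability.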
IC50 (curve of compound),IC50 [1],"IC50 (compound alone, run of 02/20/2024)",Compound,"viability, T/C (compound 0.0316 µM)","viability, T/C (compound 0.1 µM)","viability, T/C (compound 0.316 µM)","viability, T/C (compound 1 µM)","viability, T/C (compound 3.16 µM)","viability, T/C (compound 10 µM)","viability, T/C (compound 0.000999 µM)","viability, T/C (compound 0.00316 µM)","viability, T/C (compound 0.00999 µM)","viability, T/C (compound 0.0999 µM)"
> 10 µM,,,CC1COCCN1c1cc(C2(S(C)(=N)=O)CC2)nc(-c2ccnc3[nH]ccc23)n1 (stereo unspecified),118% and 109% and 93.2%,80.8% and 90.4% and 89.4%,80.8% and 111% and 79%,115% and 98.5% and 105%,51.5% and 98.4% and 90.3%,61.3% and 105% and 86.2%,,,,
,> 10 µM,,CN(C)c1ccc(Nc2c3ccc(NC(=O)CCN4CCCC4)cc3nc3cc(NC(=O)CCN4CCCC4)ccc23)cc1,85.1% [middle of 7 runs],,,,,67.7% [middle of 7 runs],,,,
> 10 µM,,,Cc1cccc(N(C)C(=O)C2C(O)CCN2c2nc(C)cc(C(F)(F)F)c2C#N)c1 (stereo unspecified),110% and 112%,88.1% and 75.7%,95.8% and 74.5%,111% and 116%,106% and 101%,93.9% and 80.4%,,,,
> 10 µM,,,C#Cc1c(F)ccc2cc(O)cc(-c3ncc4c(N5CC6CCC(C5)N6)nc(OCC56CCCN5CC(F)C6)nc4c3F)c12 (stereo unspecified),93.8% and 103% and 90.4%,101% and 86% and 69.8%,110% and 97.8% and 105%,83.9% and 94.1% and 98.5%,88.3% and 93.2% and 89%,86.6% and 71.6% and 81.2%,,,,
> 10 µM,,,C=CC(=O)N1CCN(c2nc(=O)n(-c3c(C)ccnc3C(C)C)c3nc(-c4c(O)cccc4F)c(F)cc23)C(C)C1 (stereo unspecified),75% and 84.1% and 70.8%,84.2% and 85.5% and 98.3%,89% and 80.9% and 104%,103% and 77.7% and 99%,104% and 70.7% and 95.2%,71.5% and 91% and 74.5%,,,,
> 0.316 µM,,,Cn1ncnc1[C@H]1c2n[nH]c(=O)c3cc(F)cc(c23)N[C@@H]1c1ccc(F)cc1,92.4% and 96.9%,,116% and 59.9%,,,,83.7% and 86.3%,82.9% and 98.9%,105% and 58.1%,119% and 84.3%
,,,Cc1cnc(CNC(=O)c2c(=O)c3ccc(N4CCCN(C)CC4)nc3n3c2sc2ccccc23)cn1,,,,69.1% [middle of 10 runs],,52.6% [middle of 10 runs],,,,
> 0.316 µM,,,CCc1c2c(nc3ccc(O)cc13)-c1cc3c(c(=O)n1C2)COC(=O)[C@]3(O)CC,68.9% and 65.7%,,64.6% and 78.9%,,,,95% and 84%,74.7% and 67.6%,43.7% and 57.5%,89.6% and 60.6%
,> 10 µM,8.82 µM and > 10 µM and 9.27 µM,Cc1[nH]c2ccc(F)cc2c1-c1nc2c3cccnc3c3ncccc3c2[nH]1,,87.9% [middle of 9 runs],92.2% [middle of 9 runs],,,,,,,

# From PubChem BioAssay AID2060507 (Molecular Pharmacology Branch, DTP, NCI, 2025)
